Test results: patent US10183020B2 (AstraZeneca AB, priority 2014, dated 2019)

Assays:
[1] = Permeability; format: in vitro ADME
Text: (§1) In such cases, where the solubility of a drug varies with pH, and particularly when the solubility is highest at acidic pH, there is a problem that the drug may precipitate from solution as it passes through the gastrointestinal tract. Drugs need to be in solution in order to be absorbed, so such precipitation can lead to variability in the extent and/or rate of absorption of the drug. […] In principle, the dose administered to a patient could be increased to account for potentially poor absorption, but this approach introduces a risk that too much of the drug may enter the patient's system in some cases—which may be a safety risk and/or increase the risk/severity of side-effects. […] Accordingly, there remained a problem to provide an improved way of dosing the Agent to patients that should reduce/avoid the risk of and/or severity of the above-mentioned problems of inter-patient variability of absorption and/or inter-dose variability of absorption.

[2] = system: EGFRm+ sensitising and the T790M resistance mutant forms of EGFR; conditions: cited from earlier work
[3] = Solubility of AZD9291 in simulated gastric fluid, human intestinal fluid and at intestinal pH
Text: as §1

[4] = system: wild-type EGFR lines; conditions: in vitro, compared with mutant cell lines; cited from earlier work
[5] = system: advanced EGFRm T790M+ lung adenocarcinoma; assay: Phase 1 clinical trial; format: in vivo, human; conditions: a number of patients; Agent in the form of the mesylate salt
Text: Further details of this ‘blend in capsule’ formulation are described hereinafter as ‘Comparative Example 1’.

[6] = system: EGFRm+ and T790M mutant cell lines; conditions: in vitro; cited from earlier work
[7] = system: EGFRm+ and T790M mutant tumour xenograft and transgenic models; conditions: doses as low as 5 mg/kg/day; cited from earlier work
[8] = Stability of solution (precipitation); format: physicochemical; conditions: solution once formed

Compound: C=CC(=O)Nc1cc(Nc2nccc(-c3cn(C)c4ccccc34)n2)c(OC)cc1N(C)CCN(C)C [AZD9291, N-(2-{2-dimethylaminoethyl-methylamino}-4-methoxy-5-{[4-(1-methylindol-3-yl)pyrimidin-2-yl]amino}phenyl)prop-2-enamide]
- permeability [1]: moderate permeability
- inhibition of EGFRm+ sensitising and T790M resistance mutant forms of EGFR [2]: potent inhibitor
- pH dependent solubility [3]: significant pH dependent solubility
- activity against wild-type EGFR lines [4]: much less activity
- clinical response [5]: partial responses
- inhibition of EGFR signaling pathways and cellular growth [6]: potently inhibits
- tumor regression [7]: profound and sustained tumor regression

Compound: AZD9291 mesylate
- period over which solution is stable without precipitation [8]: at least 24 hours
- solubility at intestinal pH compared with AZD9291 in free base form ([3]; intestinal pH): significantly higher
